One assay has as its target T1, NMDA receptor (Rattus norvegicus, UniProt P35439+Q00960).
T1 construct: Membranes were prepared by homogenization of the whole brain minus cerebellum and medulla oblongata; from tissue; host or cells: rat whole brain minus cerebellum and medulla oblongata, membranes
The assay can be described thus: 3H-Ro 25-6981 binding (displacement, rat brain membranes). Conditions: 5 nM 3H-Ro 25-6981, 2 hours at 4°C. The method, then:
3H-Ro 25-6981 binding (Ro 25-6981 is [R-(R*,S*)]-a-(4-Hydroxy-phenyl)-b-methyl-4-(phenyl-methyl)-1-piperidine propanol)
(§1) Male Füllinsdorf albino rats weighing between 150-200 g were used. Membranes were prepared by homogenization of the whole brain minus cerebellum and medulla oblongata with a Polytron (10.000 rpm, 30 seconds), in 25 volumes of a cold Tris-HCl 50 mM, EDTA 10 mM, pH 7.1 buffer. The homogenate was centrifuged at 48.000 g for 10 minutes at 4°C. The pellet was resuspended using the Polytron in the same volume of buffer and the homogenate was incubated at 37°C for 10 minutes. After centrifugation the pellet was homogenized in the same buffer and frozen at -80°C for at least 16 hours but not more than 10 days. For the binding assay the homogenate was thawed at 37°C, centrifuged and the pellet was washed three times as above in a Tris-HCl 5 mM, pH 7.4 cold buffer. The final pellet was resuspended in the same buffer and used at a final concentration of 200 µg of protein/ml.
3H-Ro 25-6981 binding experiments were performed using a Tris-HCl 50 mM, pH 7.4 buffer. For displacement experiments 5 nM of 3H-Ro 25-6981 were used and non specific binding was measured using 10 µM of tetrahydroisoquinoline and usually it accounts for 10% of the total. The incubation time was 2 hours at 4°C and the assay was stopped by filtration on Whatmann GF/B glass fiber filters (Unifilter-96, Packard, Zürich, Switzerland). The filters were washed 5 times with cold buffer. The radioactivity on the filter was counted on a Packard Top-count microplate scintillation counter after addition of […] of microscint 40 (Canberra Packard S.A., Zürich, Switzerland).
The effects of compounds were measured using a minimum of 8 concentrations and repeated at least once. The pooled normalized values were analyzed using a non-linear regression calculation program which provide IC50 with their relative upper and lower 95% confidence limits (RS1, BBN, USA).

In a further assay the target is 3H-Prazosine binding. The assay is described as follows: 3H-Prazosine binding (displacement, rat brain membranes). Conditions: 0.2 nM 3H-Prazosine, 30 minutes at room temperature. How it is done:
as §1, with “a Plytron” for “a Polytron”, “EDTA 10mM,” for “EDTA 10 mM,”, “Tris-HCl 5mM,” for “Tris-HCl 5 mM,”
3H-Prazosine binding experiments were performed using a Tris-HCl 50 mM, pH 7.4 buffer. For displacement experiments 0.2 nM of 3H-Prazosine were used and non specific binding was measured using 100 µM of Chlorpromazine. The incubation time was 30 minutes at room temperature and the assay was stopped by filtration on Whatman GF/B glass fiber filters (Unifilter-96, Canberra Packard S.A., Zürich, Switzerland). The filters were washed 5 times with cold buffer. The radioactivity on the filter was counted on a Packard Top-count microplate scintillation counter after addition of […] of microscint 40 (Canberra Packard S.A., Zürich, Switzerland). The effects of compounds were measured using a minimum of 8 concentrations and repeated at least once. The pooled normalized values were analyzed using a non-linear regression calculation program which provide IC50 with their relative upper and lower 95% confidence limits (RS1, BBN, USA).

The next assay deals with T2, NR1C + NR2A (Rattus norvegicus, UniProt Q00959).
T2 construct: expressed in transfected cells; host or cells: Xenopus laevis oocytes, nuclear injection of pBC/CMV expression plasmids
The assay is described as follows: Electrophysiology on recombinant NMDA receptors (voltage clamp, Xenopus laevis oocytes), NR1C + NR2A. The note with it: 10 µM compound; oocytes clamped to -80 mV; 2.7 µM Glu plus 0.9 µM Gly; mean of four to six oocytes. It is filed as cell-based. The source says: (§2) Electrophysiology on recombinant NMDA receptors
(§3) cDNA clones coding for the subunits NR1C and NR2A of the NMDA receptor (see Hollmann and Heinemann, 1994, Annu. Rev. Neurosci. 17:31 for nomenclature of NMDA receptor subunits) were isolated from a rat brain λgt11 cDNA library as published elsewhere (Sigel et al., 1994, J. Biol. Chem. 269:8204). The clone for the subunit NR2B of the rat brain NMDA receptor was obtained from S. Nakanishi (Kyoto, Japan). The cDNAs encoding rat NR1C, NR2A and NR2B were subcloned into the expression vector pBC/CMV (Bertocci et al., 1991, Proc. Natl. Acad. Sci. U.S.A. 88:1416), placing transcription of the cDNA under control of the human cytomegalovirus promoter. CsCl-purified expression plasmids were mixed in a 1:3 ratio of NR1C:NR2A or NR1C:NR2B in injection buffer (88 mM NaCI, 1 mM KCl, 15 mM HEPES, at pH 7.0). Oocytes of South African frogs (Xenopus laevis) were used for expressing either a combination of the NR1C and NR2A subunits or the NR1C and NR2B subunits. 12 to 120 pg of a 1:3 (NR1C:NR2B) mixture of the respective cDNA species were injected into the nucleus of every oocyte. On the following two days the ion current through the NMDA receptor channels was measured in voltage clamp experiments for the methods of cDNA expression in oocytes and voltage-clamping (see, e.g., Bertrand et al., 1991, Methods in Neurosciences 4:174). The membrane potential was clamped to -80 mV and the receptors were activated by applying a modified Ringer's solution containing the NMDA-receptor agonists L-glutamate (Glu) and glycine (Gly). Different agonist concentrations were chosen for either subunit combination to account for the different agonist sensitivities of the two types of receptors (2.7 µM Glu plus 0.9 µM Gly for NR1C + NR2A and 1.3 µM Glu plus 0.07 µM Gly for NR1C + NR2B). The agonists were applied for 15 s intervals once every 2.5 min by rapid superfusion of the oocyte with agonist containing solution and the amplitude of the agonist-evoked current was measured immediately before the end of each application. After a series of initial control applications the antagonist to be tested was added to both, the basal Ringer's and the agonist containing solution. The antagonist concentration applied to oocytes expressing the NR2A subunit was 10 µmol/l, whereas 0.1 µmol/l were applied to the NR2B expressing oocytes. Four to six oocytes were tested for every compound and NMDA receptor subtype. Oocytes were exposed to the compounds for 5 to 30 min depending on the time needed for reaching an equilibrium block of the NMDA receptor current. For every oocyte the decrease of the current amplitude was expressed as a percentage of the control current measured before application of the compound. Figures in the table are arithmetic mean values of these percentage values.

Another assay concerns the target T3, NR1C + NR2B (Rattus norvegicus, UniProt P35439+Q00960).
T3 construct: expressed in transfected cells; host or cells: Xenopus laevis oocytes, nuclear injection of pBC/CMV expression plasmids
The assay is described as follows: Electrophysiology on recombinant NMDA receptors (voltage clamp, Xenopus laevis oocytes), NR1C + NR2B. It counts as cell-based. Conditions: 0.1 µM compound; oocytes clamped to -80 mV; 1.3 µM Glu plus 0.07 µM Gly; mean of four to six oocytes.
Excerpt: as §2, §3

Structures can show the parent of a compound that is named as a salt.

T3 sequence (Q00960 27-1482, other chains not shown): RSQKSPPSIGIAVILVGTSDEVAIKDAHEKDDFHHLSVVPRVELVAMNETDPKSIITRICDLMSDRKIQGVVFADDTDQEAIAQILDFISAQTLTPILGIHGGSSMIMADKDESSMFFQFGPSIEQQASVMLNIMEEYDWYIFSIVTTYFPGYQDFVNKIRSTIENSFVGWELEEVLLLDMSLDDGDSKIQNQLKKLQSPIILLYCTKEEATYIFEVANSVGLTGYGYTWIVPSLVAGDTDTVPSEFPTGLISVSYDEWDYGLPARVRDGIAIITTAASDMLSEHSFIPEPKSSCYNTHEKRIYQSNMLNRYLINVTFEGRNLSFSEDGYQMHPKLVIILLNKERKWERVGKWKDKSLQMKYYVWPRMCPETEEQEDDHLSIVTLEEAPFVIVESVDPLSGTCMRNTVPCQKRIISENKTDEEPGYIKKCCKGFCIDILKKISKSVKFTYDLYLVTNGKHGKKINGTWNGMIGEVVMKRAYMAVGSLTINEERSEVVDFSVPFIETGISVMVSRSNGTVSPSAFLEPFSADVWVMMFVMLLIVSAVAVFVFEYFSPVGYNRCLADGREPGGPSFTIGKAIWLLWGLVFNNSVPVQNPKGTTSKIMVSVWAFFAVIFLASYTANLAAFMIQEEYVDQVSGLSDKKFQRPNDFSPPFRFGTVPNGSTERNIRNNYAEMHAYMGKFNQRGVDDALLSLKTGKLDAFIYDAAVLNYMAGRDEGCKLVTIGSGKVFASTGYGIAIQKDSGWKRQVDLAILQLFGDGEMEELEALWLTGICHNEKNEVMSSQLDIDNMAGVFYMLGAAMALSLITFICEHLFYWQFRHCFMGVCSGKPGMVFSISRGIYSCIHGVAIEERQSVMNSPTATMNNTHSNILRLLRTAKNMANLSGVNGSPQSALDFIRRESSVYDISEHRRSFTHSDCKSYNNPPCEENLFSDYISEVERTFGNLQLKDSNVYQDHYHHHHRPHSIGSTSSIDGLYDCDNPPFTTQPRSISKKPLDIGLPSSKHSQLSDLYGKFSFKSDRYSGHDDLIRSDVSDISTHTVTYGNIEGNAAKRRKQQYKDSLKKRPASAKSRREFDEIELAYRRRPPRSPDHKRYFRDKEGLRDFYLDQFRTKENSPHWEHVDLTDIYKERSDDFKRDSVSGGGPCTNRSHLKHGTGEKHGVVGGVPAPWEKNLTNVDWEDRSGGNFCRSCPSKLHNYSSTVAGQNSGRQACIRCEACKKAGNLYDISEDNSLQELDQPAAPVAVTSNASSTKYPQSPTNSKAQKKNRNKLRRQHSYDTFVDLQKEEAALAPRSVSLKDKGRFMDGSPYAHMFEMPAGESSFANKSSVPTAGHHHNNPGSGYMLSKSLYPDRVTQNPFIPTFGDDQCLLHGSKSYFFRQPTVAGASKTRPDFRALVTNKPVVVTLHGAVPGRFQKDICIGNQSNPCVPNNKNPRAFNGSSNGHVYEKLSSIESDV
T1 sequence (Q00960 27-1482, other chains not shown): as above
T2 sequence (Q00959 23-1464, other chains not shown): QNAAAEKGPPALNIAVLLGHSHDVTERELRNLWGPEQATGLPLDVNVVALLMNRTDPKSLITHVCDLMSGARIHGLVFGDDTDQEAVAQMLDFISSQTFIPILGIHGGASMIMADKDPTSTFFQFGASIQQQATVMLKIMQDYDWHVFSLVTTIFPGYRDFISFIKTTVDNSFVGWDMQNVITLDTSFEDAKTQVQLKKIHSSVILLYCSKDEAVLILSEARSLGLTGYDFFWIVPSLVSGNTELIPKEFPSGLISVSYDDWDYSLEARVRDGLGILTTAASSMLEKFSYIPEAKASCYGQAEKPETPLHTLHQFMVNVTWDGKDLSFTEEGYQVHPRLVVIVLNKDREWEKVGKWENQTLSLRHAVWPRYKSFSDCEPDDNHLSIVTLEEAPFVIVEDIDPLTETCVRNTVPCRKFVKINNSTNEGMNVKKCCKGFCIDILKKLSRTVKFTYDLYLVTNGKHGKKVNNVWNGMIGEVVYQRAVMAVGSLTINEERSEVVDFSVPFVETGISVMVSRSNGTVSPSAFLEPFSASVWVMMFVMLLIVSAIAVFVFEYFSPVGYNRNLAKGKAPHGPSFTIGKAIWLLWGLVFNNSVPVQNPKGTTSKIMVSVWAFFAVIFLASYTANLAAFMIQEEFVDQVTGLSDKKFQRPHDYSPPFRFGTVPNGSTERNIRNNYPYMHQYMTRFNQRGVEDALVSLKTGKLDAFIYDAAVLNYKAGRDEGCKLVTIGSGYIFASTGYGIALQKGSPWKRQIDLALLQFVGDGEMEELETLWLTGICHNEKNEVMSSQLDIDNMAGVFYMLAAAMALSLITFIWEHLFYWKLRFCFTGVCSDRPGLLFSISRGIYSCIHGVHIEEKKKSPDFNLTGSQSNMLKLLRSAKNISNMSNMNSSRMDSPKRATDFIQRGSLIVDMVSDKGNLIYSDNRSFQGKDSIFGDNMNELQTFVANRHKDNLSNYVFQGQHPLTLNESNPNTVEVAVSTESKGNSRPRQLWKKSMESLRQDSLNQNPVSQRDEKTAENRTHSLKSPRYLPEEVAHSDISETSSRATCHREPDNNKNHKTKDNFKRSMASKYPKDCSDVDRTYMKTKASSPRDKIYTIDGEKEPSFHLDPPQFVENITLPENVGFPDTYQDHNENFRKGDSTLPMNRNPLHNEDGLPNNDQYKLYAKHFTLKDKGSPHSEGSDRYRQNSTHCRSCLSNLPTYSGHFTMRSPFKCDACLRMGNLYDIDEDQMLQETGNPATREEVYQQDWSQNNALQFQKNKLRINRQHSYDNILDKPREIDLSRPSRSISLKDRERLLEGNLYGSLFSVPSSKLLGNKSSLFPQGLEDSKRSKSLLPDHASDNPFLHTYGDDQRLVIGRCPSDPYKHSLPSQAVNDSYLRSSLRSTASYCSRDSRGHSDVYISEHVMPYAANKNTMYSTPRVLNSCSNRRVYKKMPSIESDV

As a reminder, the IC50 is the concentration that inhibits the measured activity by half. Lower therefore signals greater potency. `Cc1ccc(CC2(O)CCN(C[C@@H]3Cc4cc(O)ccc4O3)CC2)cc1.Cl` [Example 13, (S)-1-(5-Hydroxy-2,3-dihydro-benzofuran-2-ylmethyl)-4-(4-methyl-benzyl)-piperidin-4-ol hydrochloride]: the IC50 on NMDA receptor turned out to be 14 nM; on 3H-Prazosine binding, 6 µM. For the same compound, on NR1C + NR2A, the “Electrophysiology NR1C + NR2A % block by 10 µM” value came to 8%. In addition, the “Electrophysiology NR1C + NR2B % block by 0.1 µM” value on NR1C + NR2B came to 93%.

On to `Oc1ccc2c(c1)CC(CN1CCC(O)(Cc3ccc(F)cc3)CC1)O2` (racemic) [Example 5, (RS)-4-(4-fluoro-benzyl)-1-(5-hydroxy-2,3-dihydro-benzofuran-2-ylmethyl)-piperidin-4-ol hydrochloride], for which the results for the IC50 on NMDA receptor and on 3H-Prazosine binding were 40 nM and 4 µM, respectively.

Consider `Cc1ccc(CC2(O)CCN(C[C@H]3CCc4cc(O)ccc4[C@@H]3O)CC2)cc1.O=C(O)/C=C/C(=O)O` (racemic) [Example 27, (1RS, 2RS)-1-(1,6-Dihydroxy-1,2,3,4-tetrahydro-naphthalen-2-ylmethyl)-4-(4-methyl-benzyl)-piperidin-4-ol fumarate salt], for which the IC50 at 3H-Prazosine binding worked out at 6 µM. The “Electrophysiology NR1C + NR2A % block by 10 µM” value at NR1C + NR2A was determined as 15%. For the same compound, the “Electrophysiology NR1C + NR2B % block by 0.1 µM” value on NR1C + NR2B is reported as 91%.

Take `Cc1ccc(CC2(O)CCN(CC3Cc4cc(O)ccc4C3O)CC2)cc1` (stereo not drawn) [Example 16, (1RS,2RS) and (1RS,2SR)-2-[4-Hydroxy-4-(4-methyl-benzyl)-piperidine-1-ylmethyl]-indan-1,5-diol fumarate salt]: the IC50 came to 23 nM on NMDA receptor and 5 µM on 3H-Prazosine binding. The “Electrophysiology NR1C + NR2A % block by 10 µM” value on NR1C + NR2A turned out to be 6%. Moreover, the “Electrophysiology NR1C + NR2B % block by 0.1 µM” value on NR1C + NR2B is listed as 86%.

With `Cc1ccc(CC2(O)CCN(CC3Cc4cc(O)ccc4N3)CC2)cc1` (racemic) [Example 21, (RS)-2-[4-Hydroxy-4-(4-methyl-benzyl)-piperidin-1-ylmethyl]-2,3-dihydro-1H-indol-5-ol], the IC50 on NMDA receptor is 55 nM; at 3H-Prazosine binding, 6.6 µM.

For the compound `Cc1ccc(CC2(O)CCN(CC3CCc4cc(O)ccc4C3)CC2)cc1` (racemic) [Example 30, (RS)-1-(6-Hydroxy-1,2,3,4-tetrahydro-naphthalen-2-ylmethyl)-4-(4-methyl-benzyl)-piperidin-4-ol hydrochloride], the 50% inhibitory concentration (IC50) was found to be 20 nM at NMDA receptor and 0.8 µM on 3H-Prazosine binding.

As for `Oc1ccc2c(c1)CC(CN1CCC(O)(Cc3ccccc3)CC1)O2` (racemic) [Example 4, (RS)-4-Benzyl-1-(5-hydroxy-2,3-dihydro-benzofuran-2-ylmethyl)-piperidin-4-ol hydrochloride], the values for the IC50 at NMDA receptor and at 3H-Prazosine binding were 50 nM and 2.5 µM, respectively.

As for `Cl.Oc1ccc2c(c1)C[C@@H](CN1CCC(O)(Cc3ccc(Cl)cc3)CC1)O2` [Example 14, (S)-1-(5-Hydroxy-2,3-dihydro-benzofuran-2-ylmethyl)-4-(4-chloro-benzyl)-piperidin-4-ol hydrochloride], the IC50 was 5 nM on NMDA receptor and 6 µM at 3H-Prazosine binding. Further, the “Electrophysiology NR1C + NR2A % block by 10 µM” value on NR1C + NR2A stood at 9%. Besides, the “Electrophysiology NR1C + NR2B % block by 0.1 µM” value on NR1C + NR2B is listed as 90%.

For `Cc1ccc(CC2(O)CCN(CC3Cc4ccc(O)cc4C3)CC2)cc1` (racemic) [Example 19, (RS)-1-(5-Hydroxy-indan-2-ylmethyl)-4-(4-methyl-benzyl)-piperidin-4-ol], the IC50 worked out at 55 nM at NMDA receptor and 3.2 µM at 3H-Prazosine binding.

As for `Cc1ccc(CC2(O)CCN(CC3Cc4cc(O)ccc4O3)CC2)cc1` (racemic) [Example 2, (RS)-1-(5-Hydroxy-2,3-dihydro-benzofuran-2-ylmethyl)-4-(4-methyl-benzyl)-piperidin-4-ol hydrochloride], the IC50 was 20 nM on NMDA receptor and 3.2 µM on 3H-Prazosine binding.

For `Oc1ccc2c(c1)CC[C@H](CN1CCC(O)(Cc3ccccc3)CC1)[C@H]2O` (racemic) [Example 29, (1RS,2RS)-2-(4-Benzyl-4-hydroxy-piperidin-1-yl-methyl)-6-hydroxy-1,2,3,4-tetrahydro-naphthalen-1-ol], the IC50 at NMDA receptor came out at 23 nM; at 3H-Prazosine binding it was 11 µM.

Turning to `CS(=O)(=O)Nc1ccc2c(c1)CC(CN1CCC(O)(Cc3ccc(Cl)cc3)CC1)O2` (racemic) [Example 22, (RS)-N-{2-[4-(4-chloro-benzyl)-4-hydroxy-pipiridin-1-ylmethyl]-2,3-dihydroxybenzofuran-5-yl}methane sulfonamide hydrochloride], the IC50 at 3H-Prazosine binding came out at 6.5 µM.

In the case of `CCc1ccc(CC2(O)CCN(CC3Cc4cc(O)ccc4O3)CC2)cc1.Cl` (racemic) [Example 7, (RS)-4-(4-Ethyl-benzyl)-1-(5-hydroxy-2,3-dihydro-benzofuran-2-ylmethyl)-piperidin-4-ol hydrochloride], the IC50 on NMDA receptor turned out to be 12 nM; at 3H-Prazosine binding, 6 µM. Further, on NR1C + NR2A, the “Electrophysiology NR1C + NR2A % block by 10 µM” value amounted to 12%. Besides, on NR1C + NR2B, the “Electrophysiology NR1C + NR2B % block by 0.1 µM” value was found to be 89%.

As to `Cc1ccc(CC2(O)CCN(CC3Cc4cc(NS(C)(=O)=O)ccc4O3)CC2)cc1` (racemic) [Example 23, (RS)-N(2-[4-hydroxy-4-(4-methyl-benzyl)-piperidin-1-ylmethyl]-2,3-dihydrobenzofuran-5-yl]-methane sulfonamide hydrochloride], the IC50 on NMDA receptor came out at 40 nM; at 3H-Prazosine binding it was 2.3 µM.

The record behind these values is patent EP0846683B1, “4-Hydroxy-piperidine derivatives” (F. HOFFMANN-LA ROCHE AG, priority 1996, dated 1998).
